This passage reports viability results from paper PMC12040169 (PLOS Biology, 2025).

This series is described as follows: in vitro. The settings on record: human, hela cells, % viability.

One may read the viability as a read-out of living cells in per cent, often relative to untreated cells. `Cc1ccc(C)c(NC(=O)C2CN(S(=O)(=O)c3ccccc3)CCN2S(=O)(=O)c2ccccc2)c1` (stereo not shown) [CBK267349]: the viability at 28.5 h, 10 µM was 93.5%.

Turning to `Fc1ccc(CN2C3CCCC2CC(NC(=S)NC2CCCCC2)C3)cc1` (stereo not shown) [CBK121172], the viability at 28.5 h, 10 µM was found to be 90%. `CC(=O)Nc1ccc(/C(C)=N/NC(=O)c2ccc(CN3CCOCC3)cc2)cc1` [CBK262720]: the viability at 28.5 h, 10 µM is 91.7%. Consider `CNC(=O)C1(C)CCCN1C(=O)c1cc2cc(C)ccc2n1C` (stereo not shown) [CBK281375], for which the viability at 28.5 h, 10 µM turned out to be 86.1%. Same read-out and setting: in the case of `O=C(CCN1C(=O)[C@@H]2Cc3ccccc3CN2C1=O)N[C@H](C(=O)O)c1ccccc1` [CBK286751] it was 88.7%; in that of `COc1ccccc1-c1ccc(NS(=O)(=O)c2ccc3c(c2)CCC(=O)N3)cc1` [CBK286353], 82.5%; in that of `Cc1ccccc1-c1cnc(NS(C)(=O)=O)c(C(=O)N(C)C)c1` [CBK106430], 103%. On the same count and under the same terms, for `CC(C)C(=O)N1CCCC(n2nc(-c3cccs3)ccc2=O)C1` (stereo not shown) [CBK284038] the value was 92.3%; for `O=C(NCc1ccc(F)cc1)c1cc(Br)cnc1N1CCOCC1` [CBK076246], 89.1%. Still for that read-out and setting: in the case of `N#CCCn1cc(C(=O)N2CCCCC2)c(-c2cccc(Cl)c2)n1` [CBK306209] it was 80%; in that of `CN(CC(=O)C(C#N)c1ccccc1)Cc1ccccc1` (stereo not shown) [CBK269432], 96.8%; in that of `Cc1ccc(S(=O)(=O)N2c3ccc(C(=O)O)cc3CC2C)cc1` (stereo not shown) [CBK286584], 82.6%. For `CCCc1[nH]n(CCc2ccccc2)c(=O)c1Cc1c(Cl)cccc1Cl` [CBK112499], the viability at 28.5 h, 10 µM amounted to 99.8%. Same read-out and setting: for `c1ccc2cc(CCN3CCN(c4nccnc4OCCN4CCOCC4)CC3)ccc2c1` [CBK082911T] the value was 87.6%. For `COc1ccc(S(=O)(=O)N(CC(=O)N2CCC(C(N)=O)CC2)c2ccccc2)cc1` [CBK265301], the viability at 28.5 h, 10 µM is 108%.

As to `CC(C)CCNCc1ccc(-c2cn(CC(=O)NCc3ccc(C(F)(F)F)cc3)cn2)cc1` [CBK165976], the viability at 28.5 h, 10 µM is 91.7%. The same measure, in the same setting: in the case of `CN(C(=O)CSc1nc2ccccc2nc1Cc1ccc(Cl)cc1)C1CCCCC1` [CBK294411] it was 104%. Still for that read-out and setting: for `Cc1ccccc1-c1ccc(C(=O)NC2CCCCC2)c(NCc2cccnc2)n1` [CBK076159] the value was 90.5%; for `Cc1cc(-c2ccc(=O)n(C3CCN(C(=O)C4CC4)CC3)n2)c(C)o1` [CBK284462], 87.2%; for `O=C1CC[C@@H](NCc2cccs2)[C@H](c2cc(F)cc(F)c2)N1` [CBK283129], 95.5%. `Cc1nc(-c2ccco2)nc2sc(C(=O)NCc3nnc4ccccn34)c(C)c12` [CBK297773]: the viability at 28.5 h, 10 µM stood at 107%.

For `CN1CCC2(CC1)NCCc1c2ccn1S(=O)(=O)c1ccc(I)cc1` [CBK061945C], the viability at 28.5 h, 10 µM turned out to be 111%. Still for that read-out and setting: for `CN1CCC(CNC(=O)Cn2ccc3ccc(F)cc32)(N(C)C)CC1` [CBK282569] the value was 107%. Still for that read-out and setting: for `Cc1noc(C)c1CC(=O)NC(C)c1cc2cc(Cl)ccc2o1` (stereo not shown) [CBK281445] the value was 90.1%; for `Cc1ccc(S(=O)(=O)Nc2ccccn2)c(C)c1C` [CBK264995], 90%; for `CCOC(=O)N1CCC(NS(=O)(=O)c2ccc(C)c([N+](=O)[O-])c2)CC1` [CBK045468], 85.8%.

With `Cc1ccc(NC(=O)c2ccc(-n3nncc3C)cc2)cc1` [CBK287790], the viability at 28.5 h, 10 µM stood at 80.9%. `O=C(NNC(=O)c1cc2ccccc2cc1O)Nc1cccc([N+](=O)[O-])c1` [CBK266882]: the viability at 28.5 h, 10 µM was 101%. Turning to `Oc1cccc(Sc2nccc(C(F)(F)F)n2)c1` [CBK093801], the viability at 28.5 h, 10 µM turned out to be 96.6%. The same measure, in the same setting: for `CC(C)NC(=O)/C(=C/c1c[nH]c2ncccc12)c1ccccc1` [CBK115357] the value was 95.8%; for `NC(CC(=O)O)c1ccc(F)c(Oc2ccccc2)c1` (stereo not shown) [CBK286912], 101%; for `O=C(c1cncnc1)N1CCN(C(=O)c2ccco2)CC1` [CBK144477], 104%. On to `CCNC(=O)Nc1cc2cccnc2c(-c2ccsc2)n1` [CBK081226], for which the viability at 28.5 h, 10 µM is 106%. `CN(CC(=O)NCc1ccco1)C1CCCCCC1` [CBK254305]: the viability at 28.5 h, 10 µM came to 97.3%. `CC(C)(Oc1ccc(Cl)cc1)C(=O)NCCc1ccc(S(N)(=O)=O)cc1` [CBK265628]: the viability at 28.5 h, 10 µM is 107%. In the case of `COc1ccc(C(=O)N2CCC(Cc3ccccc3)CC2)cc1` [CBK074337], the viability at 28.5 h, 10 µM worked out at 95.8%. The same measure, in the same setting: for `CCOC(=O)c1c(NC(=S)N2CCN(S(C)(=O)=O)CC2)sc(C)c1-c1ccccc1` [CBK267072] the value was 98%; for `CCOC(=O)CN1CCC(Oc2nccnc2OC2CCCCC2)CC1` [CBK082867T], 106%.

Regarding `Cc1ccc2nc(-c3ccncc3)cc(C(=O)N3CCN(C4CCCCC4)CC3)c2c1` [CBK267736], the viability at 28.5 h, 10 µM was 96.4%. The same measure, in the same setting: for `Cn1cc(CCNC(=O)Nc2ccc(CN3CCCC3=O)cc2)cn1` [CBK305410] the value was 107%. For the molecule `COc1cc(NS(=O)(=O)c2ccc(NC(=O)c3cccc4ccccc34)cc2)nc(OC)n1` [CBK262465], the viability at 28.5 h, 10 µM was 96.6%. Regarding `Cc1cccc(OCC(=O)Nc2ncn(Cc3cccnc3)n2)c1` [CBK304919], the viability at 28.5 h, 10 µM is 95.9%. Same read-out and setting: in the case of `CN(Cc1ccccc1NCCn1c(=O)oc2ccccc21)C1CCCCC1` [CBK296678] it was 78.1%.

In the case of `CN1CCN(CCC(=O)N/N=C/c2c[nH]c3ccccc23)CC1` [CBK261502], the viability at 28.5 h, 10 µM is 94.7%.

As for `O=C(N[C@H]1CCN2C(=O)N(c3cccc(C(F)(F)F)c3)C(=O)[C@@H]2C1)c1ccncc1` [CBK289552], the viability at 28.5 h, 10 µM is 98.7%.

Turning to `CC(C)c1ccc(COc2nccnc2OC2CCN(CCCC#N)CC2)cc1` [CBK161576], the viability at 28.5 h, 10 µM was 96.5%. Same read-out and setting: in the case of `COC(=O)COc1ccc(Oc2nc(N(C)C)nc(N3CCOCC3)n2)nn1` [CBK267258] it was 104%; in that of `O=C(O)c1ccc(CNCC(O)c2ccccc2)cc1` (stereo not shown) [CBK287243], 109%.

Regarding `CCCNC(=O)NCCc1cccs1` [CBK043675], the viability at 28.5 h, 10 µM worked out at 102%. For the molecule `COc1ccc2c(ccn2S(=O)(=O)c2ccsc2C(=O)O)c1` [CBK002378], the viability at 28.5 h, 10 µM came out at 102%.

For the molecule `O=C(Nc1ccc(NC(=O)c2cccc([N+](=O)[O-])c2)c(Cl)c1)c1cccc([N+](=O)[O-])c1` [CBK261196], under “bulk resorufin, single well”, the viability at 28.5 h, 10 µM turned out to be 105%. On to `CNC(=O)c1ccc(-c2cccc(COC)c2)nc1NCC1CC1` [CBK106322], for which the viability at 28.5 h, 10 µM was 90.7%. In the case of `CC(C)NC(=O)NC[C@H]1C[C@@H]2CCN1C[C@@H]2c1cc(C2CCCCC2)nn1C` [CBK289107], the viability at 28.5 h, 10 µM was 90.8%. On the same count and under the same terms, in the case of `O=C(c1ccc2c(c1)OCCO2)N1CCN(C(=O)c2ccco2)CC1` [CBK144480] it was 101%. Turning to `Oc1cccc2c1CC(NCC(F)(F)C(F)(F)F)CC2` (stereo not shown) [CBK007596], the viability at 28.5 h, 10 µM was found to be 96.5%. On the same count and under the same terms, in the case of `O=C(CNS(=O)(=O)c1cc(Br)c(Cl)s1)N1CCOCC1` [CBK034474] it was 100%; in that of `Clc1ccc(CSc2cccs2)cn1` [CBK002639], 95.5%. On the same count and under the same terms, in the case of `CCC(CC)C(=O)N1c2ccccc2C(C)(c2ccccc2)CC1(C)C` (stereo not shown) [CBK073862] it was 91.5%; in that of `Fc1ccc(-c2cn(-c3ccc4c(c3)CCO4)nn2)cc1` [CBK113132], 97%.

In the case of `CC(C)(C)c1cn(C[C@H]2CC3CCN2C[C@@H]3C(=O)Nc2nccs2)nn1` (stereo partly shown) [CBK288737], the viability at 28.5 h, 10 µM was 87%.

For the molecule `CCOC(=O)C1CCCN(C(=O)Nc2cc(C)on2)C1` (stereo not shown) [CBK305661], the viability at 28.5 h, 10 µM is 81.8%. Still for that read-out and setting: in the case of `Cc1cc2c(o1)c1cnn(CC(=O)N3CCCCC3)c(=O)c1n2C` [CBK284217] it was 90.5%; in that of `c1cncc(-c2nnc(SCc3nc4ccccc4[nH]3)o2)c1` [CBK264543], 98.1%; in that of `Cc1c(/C=C2\SC(=S)NC2=O)c2ccccc2n1Cc1ccccc1Cl` [CBK263946], 101%. The same measure, in the same setting: for `Oc1ccc(-c2nccnc2NCCc2ccncc2)cc1` [CBK037302] the value was 94.3%. The same measure, in the same setting: in the case of `COc1ccc(S(=O)(=O)Nc2nnc(C(C)C)s2)cc1` [CBK045525] it was 91.3%. As for `Cc1cccc(NC(=O)CCC(=O)N/N=C/c2cccnc2)c1` [CBK262023], the viability at 28.5 h, 10 µM came out at 103%. The same measure, in the same setting: in the case of `Cc1cccn2c(=O)cc(CN3CCc4c(nc(C5CC5)n4C)C3)nc12` [CBK305256] it was 99.2%; in that of `CCCCN(Cc1ccccc1)C(=O)[C@H]1CCCC[C@H]1C(=O)O` [CBK286596], 85.3%. Still for that read-out and setting: for `CCOC(=O)C1=C(C)N(CC)C(=O)NC1c1cc(OC)c(OC)c(OC)c1` (stereo not shown) [CBK091912] the value was 98.3%; for `CCCCn1nc(Cn2cncn2)nc1CC1NC(=O)c2ccccc21` (stereo not shown) [CBK307395], 108%; for `Cc1cc(-c2cc(C(=O)NN3CCN(C)CC3)c3cc(Cl)ccc3n2)c(C)s1` [CBK267738], 102%. Same read-out and setting: for `COC(=O)[C@@H](C)NC(=O)[C@H]1CN(C(=O)Nc2ccccc2)CCN1C(C)=O` [CBK289627] the value was 86.3%; for `CNS(=O)(=O)c1cc(C(=O)O)c(OC)cc1OC` [CBK110325], 84.6%. Consider `CCn1c(SCC(=O)O)nnc1-c1ccco1` [CBK068633], for which the viability at 28.5 h, 10 µM is 86.8%. The same measure, in the same setting: for `Cc1cc(C)c2nc(-n3cncn3)c(C)cc2c1` [CBK025958] the value was 88.9%. Consider `O=C(/C=C/c1ccco1)Nc1cc2ccccc2cc1NC(=O)/C=C/c1ccco1` [CBK261474], for which the viability at 28.5 h, 10 µM amounted to 99.5%. For `Cc1ccc(C(=O)C2CCN(S(=O)(=O)c3ccc(Cl)c(Cl)c3)CC2)cc1` [CBK019294], the viability at 28.5 h, 10 µM amounted to 106%.

For the molecule `CC(C)(C)OC(=O)N1CCC(CNCc2cc(F)cc(F)c2)CC1` [CBK056715], the viability at 28.5 h, 10 µM is 119%.
